Laboratory results published in US20130071854A1, “METHODS FOR THE IDENTIFICATION AND CHARACTERIZATION OF HDAC INTERACTING COMPOUNDS” (priority 2009, published 2013).
pIC50, pKd: −log10 of the molar value. Where two headings read alike, the source gives them in different places.

Legend:
[1] = system: histone acetylation, K562 cells; experiment: Mapping of histone acetylation by LC-MS/MS of K562 cells treated with HDACi; format: cell-based, human; details: K562 cells treated 6 hours, isobaric tagging and MS/MS
ISOC1 = molecular target: T1, ISOC1 (Homo sapiens, UniProt Q96CN7); experiment: Competition binding assay in cell lysate, affinity matrix, MS; details: ISOC1, read-out: IC50
T1 construct: endogenous in cells
T1 sequence (Q96CN7 1-298): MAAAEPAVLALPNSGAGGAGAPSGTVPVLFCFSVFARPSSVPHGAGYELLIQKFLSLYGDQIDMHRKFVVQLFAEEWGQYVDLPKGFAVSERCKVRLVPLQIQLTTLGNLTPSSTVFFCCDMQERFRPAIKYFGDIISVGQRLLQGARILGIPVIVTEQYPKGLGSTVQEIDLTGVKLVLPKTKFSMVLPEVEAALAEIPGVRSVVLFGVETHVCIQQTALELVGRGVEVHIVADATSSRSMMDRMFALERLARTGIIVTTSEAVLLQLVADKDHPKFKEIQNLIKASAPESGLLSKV

MBD3 = experiment: Competition binding assay in cell lysate, affinity matrix, MS (Mi-2/NuRD interactor)
BZW2 = molecular target: T2, BZW2 (Homo sapiens, UniProt Q9Y6E2); experiment: Competition binding assay in cell lysate, affinity matrix, MS; details: BZW2, read-out: IC50
T2 construct: endogenous in cells
T2 sequence (Q9Y6E2 1-419): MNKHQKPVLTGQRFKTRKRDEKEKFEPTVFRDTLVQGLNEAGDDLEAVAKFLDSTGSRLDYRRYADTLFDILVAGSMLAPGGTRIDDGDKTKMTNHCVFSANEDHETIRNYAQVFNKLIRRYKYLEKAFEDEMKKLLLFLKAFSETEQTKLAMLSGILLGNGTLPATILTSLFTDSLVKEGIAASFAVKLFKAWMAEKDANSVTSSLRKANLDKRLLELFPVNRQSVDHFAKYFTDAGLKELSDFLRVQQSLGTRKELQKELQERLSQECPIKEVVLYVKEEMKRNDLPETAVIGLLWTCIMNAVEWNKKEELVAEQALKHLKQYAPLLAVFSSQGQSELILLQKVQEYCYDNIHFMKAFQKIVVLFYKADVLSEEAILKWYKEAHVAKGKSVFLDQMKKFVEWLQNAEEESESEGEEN

MTA1 = experiment: Competition binding assay in cell lysate, affinity matrix, MS (Mi-2/NuRD interactor); set-up: species or system human; details: Molt-4 cell lysate
MTA2 = experiment: as above
GPS2 = details: Molt-4 cell lysate
MTA3 = experiment: Competition binding assay in cell lysate, affinity matrix, MS (Mi-2/NuRD interactor); details: K-562 cell lysate
DNTTIP1 = experiment: Competition binding assay in cell lysate, affinity matrix, MS; details: K-562 cell lysate
ISOC2 = molecular target: T3, ISOC2 (Homo sapiens, UniProt Q96AB3); experiment: as above; details: ISOC2; K-562 cell lysate
T3 construct: endogenous in cells

NuRD complex = experiment: Chemoproteomic binding profiling, K562 cell extract, SAHA/ITF2357 probe matrix (Kd app); set-up: species or system human
ALDH2 = molecular target: T4, ALDH2 (Homo sapiens, UniProt P05091); experiment: Competition binding assay in cell lysate, affinity matrix, MS; details: ALDH2, read-out: IC50
T4 construct: endogenous in cells
T4 sequence (P05091 18-517): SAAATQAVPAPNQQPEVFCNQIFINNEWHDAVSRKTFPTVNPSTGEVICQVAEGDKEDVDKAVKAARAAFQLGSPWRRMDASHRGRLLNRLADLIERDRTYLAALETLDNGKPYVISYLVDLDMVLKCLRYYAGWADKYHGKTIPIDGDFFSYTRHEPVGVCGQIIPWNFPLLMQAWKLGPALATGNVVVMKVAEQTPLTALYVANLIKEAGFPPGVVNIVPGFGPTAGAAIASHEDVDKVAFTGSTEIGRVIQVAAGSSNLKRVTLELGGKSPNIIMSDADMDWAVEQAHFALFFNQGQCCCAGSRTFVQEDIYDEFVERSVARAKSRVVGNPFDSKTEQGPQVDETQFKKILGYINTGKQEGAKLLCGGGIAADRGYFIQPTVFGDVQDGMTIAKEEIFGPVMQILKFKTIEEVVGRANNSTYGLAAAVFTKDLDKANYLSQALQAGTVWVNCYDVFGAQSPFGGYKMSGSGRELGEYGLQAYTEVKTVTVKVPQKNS

CoREST complex = experiment: Chemoproteomic binding profiling, K562 cell extract, SAHA/ITF2357 probe matrix (Kd app); set-up: species or system human; details: read-out: Kd^app GSE1
GATAD2B = experiment: Competition binding assay in cell lysate, affinity matrix, MS (Mi-2/NuRD interactor)
GATAD2A = experiment: as above
TBL1X = details: K-562 cell lysate
Sin3 complex = experiment: Chemoproteomic binding profiling, K562 cell extract, SAHA/ITF2357 probe matrix (Kd app); set-up: species or system human
HSPD1 = molecular target: T5, HSPD1 (Homo sapiens, UniProt P10809); experiment: Competition binding assay in cell lysate, affinity matrix, MS; details: HSPD1, read-out: IC50
T5 construct: endogenous in cells

RBBP7 = experiment: Competition binding assay in cell lysate, affinity matrix, MS (Sin3/Mi2-NuRD interactor)
WDR5 = molecular target: T6, WDR5 (Homo sapiens, UniProt P61964); experiment: Competition binding assay in cell lysate, affinity matrix, MS; details: WDR5; K-562 cell lysate
T6 construct: endogenous in cells

PPP4C = molecular target: T7, PPP4C (Homo sapiens, UniProt P60510); experiment: Competition binding assay in cell lysate, affinity matrix, MS; details: PPP4C, read-out: IC50
T7 construct: endogenous in cells
T7 sequence (P60510 1-307): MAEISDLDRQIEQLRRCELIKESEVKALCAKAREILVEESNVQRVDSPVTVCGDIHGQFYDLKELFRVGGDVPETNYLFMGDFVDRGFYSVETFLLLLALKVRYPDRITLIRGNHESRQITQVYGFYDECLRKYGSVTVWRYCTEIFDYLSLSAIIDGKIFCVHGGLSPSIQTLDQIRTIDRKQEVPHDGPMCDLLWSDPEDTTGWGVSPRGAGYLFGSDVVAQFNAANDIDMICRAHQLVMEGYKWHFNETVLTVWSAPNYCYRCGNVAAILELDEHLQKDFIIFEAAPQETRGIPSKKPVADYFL

T5 sequence (P10809 27-573): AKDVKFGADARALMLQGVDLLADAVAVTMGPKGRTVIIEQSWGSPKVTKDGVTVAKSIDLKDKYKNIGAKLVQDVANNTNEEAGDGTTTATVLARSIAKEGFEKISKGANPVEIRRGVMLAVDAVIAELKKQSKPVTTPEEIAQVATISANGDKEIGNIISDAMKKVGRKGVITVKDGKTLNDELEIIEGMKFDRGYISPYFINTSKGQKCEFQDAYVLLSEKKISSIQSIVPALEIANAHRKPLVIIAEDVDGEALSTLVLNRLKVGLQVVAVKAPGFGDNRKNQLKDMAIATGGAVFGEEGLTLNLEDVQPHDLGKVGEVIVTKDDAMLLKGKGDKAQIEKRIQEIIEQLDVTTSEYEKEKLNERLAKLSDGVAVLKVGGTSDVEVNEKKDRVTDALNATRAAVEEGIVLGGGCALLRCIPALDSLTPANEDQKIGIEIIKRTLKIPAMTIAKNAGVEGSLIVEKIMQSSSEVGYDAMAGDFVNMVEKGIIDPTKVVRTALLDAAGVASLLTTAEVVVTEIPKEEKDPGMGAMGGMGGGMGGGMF
T3 sequence (Q96AB3 whole entry): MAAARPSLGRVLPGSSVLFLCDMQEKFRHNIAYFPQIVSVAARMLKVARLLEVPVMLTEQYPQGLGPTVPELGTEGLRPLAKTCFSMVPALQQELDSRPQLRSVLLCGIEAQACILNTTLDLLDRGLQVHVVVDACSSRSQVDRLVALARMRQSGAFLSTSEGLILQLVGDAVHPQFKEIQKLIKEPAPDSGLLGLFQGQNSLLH

CC(/C=C/C(=O)NO)=C\[C@@H](C)C(=O)c1ccc(N(C)C)cc1 [Trichostatin A]
abundance of acetylated histone peptides (in words) [1]: pronounced abundance of hyperacetylated histone peptides | pIC50 (ISOC1; K-562 cell lysate): 5.52 | pIC50 (ISOC1; Molt-4 cell lysate): 5.52 | pIC50 (MBD3; K-562 cell lysate): 7.30 | pIC50 (MBD3; Molt-4 cell lysate): 7.40 | pIC50 (BZW2; K-562 cell lysate): 5.55 | pIC50 (BZW2; Molt-4 cell lysate): 5.61 | pIC50 (MTA1): 7.22 | pIC50 (MTA2; K-562 cell lysate): 7.15 | pIC50 (MTA2; Molt-4 cell lysate): 7.22 | pIC50 (GPS2): 7.00 | pIC50 (MTA3): 7.22 | pIC50 (DNTTIP1): 7.30 | pIC50 (ISOC2): 5.52 | pKd (NuRD complex; read-out: Kd^app CHD4): 7.22 | pKd (NuRD complex; read-out: Kd^app GATAD2B): 7.52 | pKd (NuRD complex; read-out: Kd^app MTA1): 6.92 | pIC50 (ALDH2; K-562 cell lysate): 5.52 | pIC50 (ALDH2; Molt-4 cell lysate): 5.52 | pKd (CoREST complex): 8.40 | pIC50 (GATAD2B; K-562 cell lysate): 7.22 | pIC50 (GATAD2B; Molt-4 cell lysate): 7.22 | pIC50 (GATAD2A; K-562 cell lysate): 7.22 | pIC50 (GATAD2A; Molt-4 cell lysate): 7.40 | pIC50 (TBL1X): 7.30 | pKd (Sin3 complex; protein SAP30, read-out: Kd^app SAP30): 7.52 | pKd (Sin3 complex; protein SIN3A, read-out: Kd^app SIN3A): 7.52 | pKd (Sin3 complex; protein SIN3B, read-out: Kd^app SIN3B): 7.52 | pIC50 (HSPD1; K-562 cell lysate): 5.52 | pIC50 (HSPD1; Molt-4 cell lysate): 5.52 | pIC50 (RBBP7; K-562 cell lysate): 6.74 | pIC50 (RBBP7; Molt-4 cell lysate): 6.92 | pIC50 (WDR5): 6.38 | pIC50 (TBL1XR1; K-562 cell lysate): 7.15 | pIC50 (TBL1XR1; Molt-4 cell lysate): 7.15 | pIC50 (PPP4C; K-562 cell lysate): 5.52 | pIC50 (PPP4C; Molt-4 cell lysate): 5.52
